Laboratory results: patent US9885044B2, “Polynucleotides and methods for inhibiting cancer cells” (Chang Gung Memorial Hospital, Linkou, priority 2015, dated 2018)

Experiments:
Type in all cases: cell-based
Puf-A = assay: Effect of small molecules blocking downstream effectors of Kras pathway on Puf-A expression (Western blot); settings: H460 and HCT116 cancer cells
Description: FIG. 3C is a series of bar graphs showing Puf-A promoter activity in Kras^G12D or c-Myc transfected cells, determined by dual-luciferase reporter assay. FIG. 3D illustrates the binding of c-Myc protein to exon 1 of Puf-A locus in H1299 and HCT116 cells. […] FIG. 3F is an assembly of the Western blot images illustrating the effect of Raf inhibitor (Raf (i)), MEK1 inhibitor (PD98059) and MEK1/2 inhibitor (U0126) on the expression of Puf-A, phosphorylated ERK1/2, total ERK1/2 and β-actin in H460 (Kras ^Q61H) and HCT116 (Kras^G13D) cancer cells.
The effect of various small molecules (such as Raf(i), PD98059 and UO126), which block the downstream effectors of Kras pathway (such as Rafs, MEK1 and MEK2), was assessed in H460 and HCT116 cancer cells.

[1] = tested on: MB231 breast cancer cells; assay: Cell proliferation assay, xCELLigenece RTCA system, MB231; settings: 25 and 50 uM
Method: (§1) FIG. 9A is an assembly of Western blot images illustrating 25 and 50 uM of resveratrol reduced the expression of Puf-a in A549 lung cancer cells, HCT116 colon cancer cells, MB231 breast cancer cells and T98 glioblatoma cells. FIG. 9B is an assembly of graphs illustrating 25 and 50 uM of resveratrol was effective in reducing the proliferation of A549 lung cancer cells, HCT116 colon cancer cells, MB231 breast cancer cells and T98 glioblatoma cells.
(§2) An in vitro evaluation of the effect of Resveratrol on the expression level of Puf-a protein and cell proliferation in various cancer cells was examined. The following cancer cells were treated with 0, 25 or 50 uM of Resveratrol (commercially available from Sigma, USA): A549 lung cancer cells (p53 proficient), HCT116 colon cancer cells (p53 proficient), MB231 breast cancer cells (p53 deficient) and T98 glioblatoma cells (p53 deficient). The expression of Puf-A protein in these cancer cells was analyzed by western blot and the cell proliferation was measured with a cell proliferation assay performed with xCELLigenece RTCA system (ACEA Biosciences Inc, USA). FIG. 9A is an assembly of Western blot images illustrating 25 and 50 uM of resveratrol reduced the expression of Puf-A in A549 lung cancer cells, HCT116 colon cancer cells, MB231 breast cancer cells and T98 glioblatoma cells. […]

Puf-A protein = assay: Effect of resveratrol on Puf-A protein expression (Western blot); settings: 25 and 50 uM
Method: as §1
An in vitro evaluation of the effect of Resveratrol on the expression level of Puf-a protein and cell proliferation in various cancer cells was examined. The following cancer cells were treated with 0, 25 or 50 uM of Resveratrol (commercially available from Sigma, USA): A549 lung cancer cells (p53 proficient), HCT116 colon cancer cells (p53 proficient), MB231 breast cancer cells (p53 deficient) and T98 glioblatoma cells (p53 deficient). The expression of Puf-A protein in these cancer cells was analyzed by western blot and the cell proliferation was measured with a cell proliferation assay performed with xCELLigenece RTCA system (ACEA Biosciences Inc, USA). FIG. 9A is an assembly of Western blot images illustrating 25 and 50 uM of resveratrol reduced the expression of Puf-A in A549 lung cancer cells, HCT116 colon cancer cells, MB231 breast cancer cells and T98 glioblatoma cells. FIG. 9B is an assembly of graphs illustrating 25 and 50 uM of resveratrol reduced the proliferation of A549 lung cancer cells, HCT116 colon cancer cells, MB231 breast cancer cells and T98 glioblatoma cells compare to the control group (no resveratrol).

T98 glioblatoma cells = assay: Cell proliferation assay, xCELLigenece RTCA system, T98; settings: 25 and 50 uM
Method: as §1, §2

A549 lung cancer cells = assay: Cell proliferation assay, xCELLigenece RTCA system, A549; settings: 25 and 50 uM
Method: as §1, §2

[2] = tested on: HCT116 colon cancer cells; assay: Cell proliferation assay, xCELLigenece RTCA system, HCT116; settings: 25 and 50 uM
Method: as §1, §2

COc1cccc(-c2cc(=O)c3ccccc3o2)c1N [PD98059]
reduced: expression levels of Puf-A (Puf-A)

Oc1ccc(C=Cc2cc(O)cc(O)c2)cc1 [resveratrol]
reduced: proliferation compared to control group (no resveratrol) [1] | expression of Puf-A (Puf-A protein; A549 lung cancer cells (p53 proficient)) | expression of Puf-A (Puf-A protein; HCT116 colon cancer cells (p53 proficient)) | expression of Puf-A (Puf-A protein; MB231 breast cancer cells (p53 deficient)) | expression of Puf-A (Puf-A protein; T98 glioblatoma cells (p53 deficient)) | proliferation compared to control group (no resveratrol) (T98 glioblatoma cells) | proliferation compared to control group (no resveratrol) (A549 lung cancer cells) | proliferation compared to control group (no resveratrol) [2]
